Patent US20060083790A1, “Combination of an ibat inhibitor and a metal salt for the treatment of diarrhoea” (priority 2002, published 2006)
Where two headings read alike, the source gives them in different places.

Columns and labels:
[1] = for Concentration of bile acids: pH 7.4, supernatant
Description: A solution containing a mixture of bile acids was prepared by dissolving the following components in deionised water:
The pH was adjusted to 7.4.
A calcium chloride solution was prepared by dissolving the following components in deionised water:
2.0 ml of the bile acid solution was added to each of 6 glass vials. A known volume, varying from 0 to 300 μl, of the calcium chloride solution was added to each vial. Each sample was inspected visually immediately after the calcium chloride addition. 1.5 ml of each sample was transferred into a centrifugation tube and centrifuged for 20 mins at 14 000 rpm. The clear supernatant was collected and analysed with respect to bile acid content. The analyses were carried out using a bile acid analysis kit which employs an enzymatic colour reaction. The concentration of bile acid is proportional to the colour intensity which is determined by spectrophotometry.

[2] = dog
Description: The IBAT inhibitor is dosed orally at a dose that will cause diarrhoea, for example 25-50 μmol/kg. The metal salt is then introduced into the colon, through the fistulae, to see if the diarrhoea can be prevented. The dose of the metal salt varies and can be determined after analysing the bile acid concentration in faeces from dogs having been exposed to the same dose of the IBAT inhibitor.
A solution of an BAT inhibitor was administered directly into the stomach of the dog via an orogastric tube (t=0 hours). The dog was fed 30 minutes after the administration of the IBAT inhibitor (t=0.5 hours).
Faeces was collected during the first 8 hours after administration, and the time for each bowel movement was recorded. Each faeces sample was homogenized with a high-shear mixer and, subsequently, centrifuged in order to separate the solid material from the faecal water phase. The faecal water was collected and analysed with respect to bile acid content. The amount of bile acid in the faecal water was related to the amount of solid material in each faeces sample.

[3] = for Absorbance (taurocholate concentration after the enzymatic colour reaction): pH 6.5, supernatant
Description: A solution simulating the human intestinal fluid in the fasted state, FaSSIF, was prepared by dissolving the following components in deionised water.
The pH was adjusted to 6.5.
A separate solution of calcium chloride was prepared by dissolving 149.2 mM of the salt in deionised water.
5.0 ml of FaSSIF was added to each of 7 glass vials. A known volume, varying from 0 to 0.5 ml, of the calcium chloride solution was added to each vial. Each sample was inspected visually immediately after the calcium chloride addition.
A volume of 1.0 ml was withdrawn from each sample and centrifuged for 20 mins at 14 000 rpm. The clear supernatant of each sample was collected and analysed with respect to bile acid content. The analyses were carried out using a bile acid analysis kit which employs an enzymatic colour reaction. The concentration of bile acid is proportional to the colour intensity which is determined by spectrophotometry.

[4] = 200 mg crystalline calcium phosphate in 10 ml, initial DC 1-20 mM, pH 7.4, all samples
Description: A stock solution of sodium deoxycholate (DC) was prepared by dissolving the following substances in deionised water:
(§1) The pH was adjusted to 7.4 with sodium hydroxide.
(§2) A similar buffer solution with the same content, except for the bile acid was also prepared.
The resulting initial DC concentrations in the samples were 1-20 mM. The samples were equilibrated for several hours. The solid material in the samples were removed by centrifugation and/or filtration, and the obtained clear supernatants were analysed with respect to DC content. The analyses were carried out by HPLC.

[5] = 200 mg crystalline calcium phosphate in 10 ml, initial GDC 1-15 mM, pH 7.4, all samples
Description: A stock solution of sodium glycodeoxycholate (GDC) was prepared by dissolving the following substances in deionised water:
as §1, §2
The resulting initial GDC concentrations in the samples were 1-15 mM. The samples were equilibrated for several hours. The solid material in the samples were removed by centrifugation and/or filtration, and the obtained clear supernatants were analysed with respect to GDC content. The analyses were carried out by HPLC.

[6] = with increasing added amount of calcium chloride

Compound | Concentration of bile acids ([1]; 3.0 μmol calcium chloride added to 2.0 ml bile acid solution) [mM] | Concentration of bile acids ([1]; 6.0 μmol calcium chloride added to 2.0 ml bile acid solution) [mM] | Concentration of bile acids ([1]; 12.0 μmol calcium chloride added to 2.0 ml bile acid solution) [mM] | Concentration of bile acids ([1]; 30.0 μmol calcium chloride added to 2.0 ml bile acid solution) [mM] | Concentration of bile acids ([1]; 60.1 μmol calcium chloride added to 2.0 ml bile acid solution) [mM] | Visual inspection immediately after calcium chloride addition ([1]; bile acid mixture, all samples with calcium chloride) | Concentration of bile acids in the aqueous solution, trend [1, 6] | Bile acid concentration in faecal water ([2]; IBAT inhibitor into the stomach at t=0, intracolonic calcium chloride at t=1 hour, as long as calcium chloride is present in the colon) | Time after which most of the calcium chloride has been removed from the colon ([2]; intracolonic administration, removed by absorption or by bowel movements) | Absorbance (taurocholate concentration after the enzymatic colour reaction) ([3]; 7.5 μmol calcium chloride added to 5.0 ml FaSSIF) | Absorbance (taurocholate concentration after the enzymatic colour reaction) ([3]; 14.9 μmol calcium chloride added to 5.0 ml FaSSIF) | Absorbance (taurocholate concentration after the enzymatic colour reaction) ([3]; 22.4 μmol calcium chloride added to 5.0 ml FaSSIF) | Absorbance (taurocholate concentration after the enzymatic colour reaction) ([3]; 29.8 μmol calcium chloride added to 5.0 ml FaSSIF) | Absorbance (taurocholate concentration after the enzymatic colour reaction) ([3]; 44.8 μmol calcium chloride added to 5.0 ml FaSSIF) | Absorbance (taurocholate concentration after the enzymatic colour reaction) ([3]; 74.6 μmol calcium chloride added to 5.0 ml FaSSIF) | Visual inspection immediately after calcium chloride addition ([3]; FaSSIF, all samples with calcium chloride) | Concentration of taurocholate in the aqueous solution, trend [3, 6] | DC concentration in supernatant (HPLC) [4] | GDC concentration in supernatant (HPLC) [5]
[Ca+2].[Cl-].[Cl-] [calcium chloride] | 2.2 | 2.1 | 1.9 | 0.8 | 0.7 | a precipitate was formed in all samples | decreased with increasing added amount of calcium chloride | relatively constant | approximately 3.5 hours | 0.0933 | 0.0890 | 0.0843 | 0.0783 | 0.0735 | 0.0718 | A precipitate was formed in all samples | decreased with increasing added amount of calcium chloride | – | –
calcium phosphate | – | – | – | – | – | – | – | – | – | – | – | – | – | – | – | – | – | reduced by the presence of calcium phosphate in all samples | reduced by the presence of calcium phosphate in all samples
